{"source": "patent US7696408B2", "about": "“Method to enhance Agrobacterium-mediated transformation of plants” (Regents of the University of Minnesota, priority 1999, dated 2010)", "key": {"[1]": {"system": "Japonica rice meristem cultures", "conditions": "individually or in combination; Enríguez-Obregón et al., 1999; cited from earlier work"}, "[2]": {"system": "soybean cot-node explants", "assay": "GUS+ sectors, shoots and shoot primordia after 28 days (4 weeks) on shoot induction medium with PPT (stable transformation)", "format": "cell-based, Glycine max", "conditions": "for % of explants with GUS+ shoots: Bert", "method": "After 5 days, the explants were washed in a liquid shoot induction media (B5 salts, MSIII iron stock, 3% sucrose, 3 mM MES, and filter sterilized B5 vitamins, 1.67 mg/l BAP, 100 mg/l cefotaxime, and 500 mg/l ticarcillin; pH 5.6) to remove excess Agrobacterium. Seven to ten explants from each cysteine level were washed in liquid shoot induction medium and placed in GUS histochemical stain (Jefferson et al., 1987). These explants were scored for GUS transient expression. Five to ten explants from each group were imbedded into a single 25×100 mm petri plate with solid shoot induction media (0.8% agar and agent, e.g., 400 mg/l cysteine) containing PPT concentrations of 1.33 mg/l, 3.33 mg/l, or 5.0 mg/l for selection. The plates were then incubated in a growth chamber with a fluctuating temperature between 18° C.-30° C. under a 18 hours light/6 hours dark cycle at 90-150 μE/m^2s. The explants were removed from the chamber after 14 days and transferred to fresh shoot induction media containing herbicide selection. During the transfer, the hypocotyl was carefully removed from the developing shoot mass and imbedded into the media with the differentiating tissue flush with the media surface. The plates were placed back into the growth chamber for an additional 2 weeks. At the 4 week time point, explants without de novo shoot production were discarded. The cotyledons were then removed from the differentiating tissue by cutting at the base of the node and the callus trimmed before transferring into shoot elongation media containing MS salts (murashige and Skoog, 1962), MSIII iron stock, 3% sucrose, 3 mM MES, 0.8% agar, and filter sterilized B5 vitamins, 50 mg/l asparagine, 100 mg/l pyroglutamic acid, 1 mg/l zeatin riboside, 0.1 mg/l indole-acetic acid, 0.5 mg/l GA3, 100 mg/l cefotaxime, 500 mg/l ticarcillin, 1.3-5 mg/l PPT; pH 5.6). Also at this time, a percentage of the explants were sliced into about 10 sections and stained for both GUS positive sectors and GUS positive shoots. Every 2 weeks the explants were transferred into new shoot elongation media after removing dead plant tissue and the bottom of the explant cut to encourage shoot elongation of transformed shoots. For the 4 week data, the minimum number of transformation events was recorded. Those explants with a GUS positive sector in the differentiating tissue giving rise to shoots were recorded with the number of transformation events in bold and italicized (FIGS. 2-5). Shoot data was obtained by recording the number of fully formed shoots seen on an explant. […] To determine the effect of adding cysteine to the co-cultivation medium on stable transformation, co-cultured explants were cultured for 28 days on a shoot-inducing medium containing the herbicide, phosphinothricin (PPT). During the 28 day incubation, the explants usually form de novo callus and shoots in the cot-node region in a structure referred to as a callus/shoot pad (FIG. 9). The callus/shoot pads were sliced in approximately 5 mm sections, immersed into GUS histochemical stain, and scored for GUS^+ sectors throughout the callus/shoot pad. […] The formation of transgenic shoot primordia and sectors extending into developing shoot tissues were also scored on 28 day sections of explants co-cultivated on 0 and 400 mg/l cysteine (FIG. 10A). Only those GUS^+ shoot primordia with obvious trichomes, which are characteristic to leaf tissue, or GUS^+ sectors originating and extending into the tissue at the base of developing shoots (referred to hereafter as differentiating tissue) were scored (FIG. 1A2)."}, "[3]": {"conditions": "cysteine 400-1000 mg/l, eight independent experiments"}}, "note": "Where “and” joins values, the source holds several entries; their conditions need not be identical. Identical values can stand only once. Entries after “also recorded” stand apart in the source; their conditions may differ.", "data": [{"compound": "N[C@@H](CS)C(=O)O", "note": "[L-cysteine]", "values": [{"measurement": "damage and viability of Japonica rice meristem cultures", "setting": "[1]", "result": "decreased damage and increased viability"}, {"measurement": "% of explants with GUS+ shoots", "setting": "[2]; 400 mg/l cysteine and 3.33 mg/l PPT", "result": "16.6% and 16.7%"}, {"measurement": "% of explants with GUS+ shoots", "setting": "[2]; 400 mg/l cysteine and 5 mg/l PPT", "result": 33.3, "unit": "%"}, {"measurement": "average number of GUS+ sectors per explant, each genotype tested", "setting": "[2]; 400 mg/l cysteine vs no cysteine, 28 day", "result": "significantly greater"}, {"measurement": "frequency of explants with a GUS+ sector in differentiating tissue, relative to no cysteine", "setting": "[2]; 400 mg/l cysteine, 28 days", "result": 3.5, "unit": "fold"}, {"measurement": "percent of explants with GUS+ shoot primordia, relative to no cysteine", "setting": "[2]; 400 mg/l cysteine, 28 days", "result": 5, "unit": "fold"}, {"measurement": "average GUS+ foci/explant scored after 4 weeks of shoot initiation", "setting": "[2]; 400 mg/l cysteine, low selection pressure 1.6 to 3.33 mg/l PPT, control 3.3", "result": 15.6, "unit": "GUS+ foci/explant"}, {"measurement": "percent of explants with GUS+ shoot primordia or differentiated sectors, difference from 0 mg/l cysteine", "setting": "[2]; 400 mg/l shoot primordia and differentiated sectors, 1000 mg/l shoot primordia, α=0.05", "result": "significantly differ"}, {"measurement": "increase in GUS+ sectors over the control explants", "setting": "[2]; 1000 mg/l cysteine, 28 days", "result": 3.6, "unit": "fold"}, {"measurement": "average number of GUS+ sectors per explant compared to no cysteine", "setting": "[2]; 300 to 1000 mg/l cysteine (FIG. 9 also 1500 mg/l), 28 days, P<0.05", "result": "significantly higher; also recorded: significantly differ"}, {"measurement": "increase in GUS+ sectors over the no cysteine control", "setting": "[2]; 400 to 1000 mg/l cysteine, 28 days", "result": "> 3", "unit": "fold"}, {"measurement": "explants with GUS+ shoot primordia at other cysteine levels", "setting": "[2]; all other levels of cysteine tested, except 50 mg/l, 28 days", "result": "at least one explant"}, {"measurement": "GUS+ foci at the 28-day interval", "setting": "[2]; amended to solid co-cultivation media", "result": "increase"}, {"measurement": "increase in GUS+ shoot primordia after 28 days", "setting": "[2]; [3]", "result": 5, "unit": "fold"}, {"measurement": "increase in stable T-DNA integration after 28 days", "setting": "[2]; [3]", "result": 3.6, "unit": "fold"}, {"measurement": "number of GUS+ sectors on the callus/shoot pad, cysteine in shoot induction medium", "setting": "[2]; cysteine added to shoot induction medium for 28 days", "result": "did not increase"}, {"measurement": "increase in stable T-DNA transfer in newly developed shoot primordia", "setting": "[2]; cysteine in co-cultivation media", "result": "≥ 5", "unit": "fold"}]}]}
